For five molecules, IC50 and inhibition results are on record in ChEMBL document CHEMBL1131670, “N-hydroxyurea and hydroxamic acid inhibitors of cyclooxygenase and 5-lipoxygenase” (Bioorg Med Chem Lett, 1999).

The target of assay [1] is T1, Cyclooxygenase (Rattus norvegicus, UniProt P35355+Q63921).
T1 sequence (P35355 whole entry): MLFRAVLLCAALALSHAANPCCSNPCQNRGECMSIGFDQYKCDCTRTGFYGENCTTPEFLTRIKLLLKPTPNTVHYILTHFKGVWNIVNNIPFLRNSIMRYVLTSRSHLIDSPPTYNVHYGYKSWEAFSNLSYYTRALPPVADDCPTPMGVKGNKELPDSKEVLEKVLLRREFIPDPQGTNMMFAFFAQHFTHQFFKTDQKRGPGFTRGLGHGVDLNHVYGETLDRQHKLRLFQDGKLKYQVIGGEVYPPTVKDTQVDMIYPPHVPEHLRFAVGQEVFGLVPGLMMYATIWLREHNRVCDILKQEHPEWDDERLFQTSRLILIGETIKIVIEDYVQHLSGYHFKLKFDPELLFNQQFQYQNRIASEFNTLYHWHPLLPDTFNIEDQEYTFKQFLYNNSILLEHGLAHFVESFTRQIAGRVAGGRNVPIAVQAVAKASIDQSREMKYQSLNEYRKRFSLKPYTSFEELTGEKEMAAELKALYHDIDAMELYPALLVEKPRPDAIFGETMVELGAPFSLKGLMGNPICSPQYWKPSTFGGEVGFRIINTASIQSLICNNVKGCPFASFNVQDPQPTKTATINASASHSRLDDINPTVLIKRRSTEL
T1 sequence (Q63921 whole entry): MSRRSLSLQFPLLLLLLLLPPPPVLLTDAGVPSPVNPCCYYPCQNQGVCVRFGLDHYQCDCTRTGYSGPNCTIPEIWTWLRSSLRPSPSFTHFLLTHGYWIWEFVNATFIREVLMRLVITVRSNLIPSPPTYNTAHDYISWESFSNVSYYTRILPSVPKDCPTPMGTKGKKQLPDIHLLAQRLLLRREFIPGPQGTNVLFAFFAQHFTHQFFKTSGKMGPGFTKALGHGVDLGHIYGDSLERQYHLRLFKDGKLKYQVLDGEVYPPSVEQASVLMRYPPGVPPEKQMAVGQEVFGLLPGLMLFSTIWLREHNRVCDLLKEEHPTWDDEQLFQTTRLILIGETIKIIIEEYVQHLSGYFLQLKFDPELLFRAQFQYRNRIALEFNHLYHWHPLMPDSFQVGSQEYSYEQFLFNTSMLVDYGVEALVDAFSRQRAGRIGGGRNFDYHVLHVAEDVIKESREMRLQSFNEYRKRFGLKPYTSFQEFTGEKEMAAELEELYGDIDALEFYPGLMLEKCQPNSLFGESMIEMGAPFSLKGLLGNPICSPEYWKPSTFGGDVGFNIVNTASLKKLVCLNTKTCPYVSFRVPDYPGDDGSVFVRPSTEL
Put plainly: (§1) Inhibitory activity against Cyclooxygenase (COX) using broken rat […] leukemia cells (RBL-1). The class given is cell-based.

The target of assay [2] is T1, Cyclooxygenase. Put plainly: Inhibitory activity against cyclooxygenase (COX) in intact rat […] leukemia cells (RBL-1). Type of assay: cell-based.
In assay [3] the target is T2, Polyunsaturated fatty acid 5-lipoxygenase (Rattus norvegicus, UniProt P12527).
T2 sequence (P12527 whole entry): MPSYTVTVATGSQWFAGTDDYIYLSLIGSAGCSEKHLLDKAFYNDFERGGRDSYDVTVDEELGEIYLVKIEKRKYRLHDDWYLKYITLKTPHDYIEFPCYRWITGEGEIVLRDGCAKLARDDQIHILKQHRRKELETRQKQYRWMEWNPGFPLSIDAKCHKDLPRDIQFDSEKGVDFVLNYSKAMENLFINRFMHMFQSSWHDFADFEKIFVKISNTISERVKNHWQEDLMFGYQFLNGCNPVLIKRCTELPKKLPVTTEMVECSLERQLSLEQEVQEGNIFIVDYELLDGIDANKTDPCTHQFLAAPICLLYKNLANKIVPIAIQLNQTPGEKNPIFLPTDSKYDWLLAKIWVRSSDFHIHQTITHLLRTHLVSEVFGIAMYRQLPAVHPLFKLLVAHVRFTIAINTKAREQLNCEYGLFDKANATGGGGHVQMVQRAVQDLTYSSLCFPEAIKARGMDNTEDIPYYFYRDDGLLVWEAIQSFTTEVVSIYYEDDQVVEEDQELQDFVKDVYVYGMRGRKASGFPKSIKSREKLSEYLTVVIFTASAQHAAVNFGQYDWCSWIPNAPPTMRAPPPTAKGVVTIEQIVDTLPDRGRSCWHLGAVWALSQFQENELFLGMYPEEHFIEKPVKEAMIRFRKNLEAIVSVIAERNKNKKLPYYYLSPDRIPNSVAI
Description: Inhibitory activity against 5-lipoxygenase (5-LO) using broken rat […] leukemia cells (RBL-1). Type of assay: cell-based.

For assay [4], the target named is T3, Cyclooxygenase (Homo sapiens) (UniProt P35354+P23219). Description: Inhibitory activity against cyclooxygenase (COX) in after oral administration of 5 mg/kg at 24 hr r. Type of assay: organism-based. On the set-up: dose 5 mg/kg. The settings on record: Canis lupus familiaris; at 5 mg/kg.
In assay [5] the target is T4, Polyunsaturated fatty acid 5-lipoxygenase (Homo sapiens) (UniProt P09917).
T4 sequence (whole entry): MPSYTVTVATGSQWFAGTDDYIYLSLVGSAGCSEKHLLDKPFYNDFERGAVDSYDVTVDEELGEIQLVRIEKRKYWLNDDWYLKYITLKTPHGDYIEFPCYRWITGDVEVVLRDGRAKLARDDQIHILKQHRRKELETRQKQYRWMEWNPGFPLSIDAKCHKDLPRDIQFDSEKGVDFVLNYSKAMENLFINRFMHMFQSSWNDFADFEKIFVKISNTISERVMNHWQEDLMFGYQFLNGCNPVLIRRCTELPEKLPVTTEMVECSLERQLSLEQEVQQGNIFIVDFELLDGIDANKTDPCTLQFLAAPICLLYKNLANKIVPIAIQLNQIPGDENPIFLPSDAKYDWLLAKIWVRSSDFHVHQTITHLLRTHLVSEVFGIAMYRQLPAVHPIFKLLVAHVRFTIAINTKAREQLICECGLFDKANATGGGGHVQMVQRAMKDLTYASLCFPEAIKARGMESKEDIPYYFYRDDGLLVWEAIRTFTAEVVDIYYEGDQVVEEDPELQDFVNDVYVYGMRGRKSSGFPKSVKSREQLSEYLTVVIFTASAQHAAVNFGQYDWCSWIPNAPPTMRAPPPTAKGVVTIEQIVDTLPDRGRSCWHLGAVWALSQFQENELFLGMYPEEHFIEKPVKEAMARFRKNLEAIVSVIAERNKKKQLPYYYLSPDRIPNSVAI
Description: Inhibitory activity against 5-lipoxygenase (5-LO) in after oral administration of 5 mg/kg at 2 hr to canine. The class given is organism-based. Particulars: Canis lupus familiaris; target entry is the homologue from another species; at 5 mg/kg. On the set-up: dose 5 mg/kg.

The target of assay [6] is T4, Polyunsaturated fatty acid 5-lipoxygenase (Homo sapiens). Put plainly: Inhibitory activity against 5-lipoxygenase (5-LO) in after oral administration of 5 mg/kg at 4 hr to canine. Further details: dose 5 mg/kg. Type of assay: organism-based. Particulars: Canis lupus familiaris; target entry is the homologue from another species; at 5 mg/kg.
The target in assay [7] is T3, Cyclooxygenase (Homo sapiens). Put plainly: Inhibitory activity against cyclooxygenase (COX) in after oral administration of 5 mg/kg at 4 hr to canine. Type of assay: organism-based. On the set-up: dose 5 mg/kg. The settings on record: Canis lupus familiaris; target entry is the homologue from another species; at 5 mg/kg.
The target in assay [8] is T4, Polyunsaturated fatty acid 5-lipoxygenase (Homo sapiens). Put plainly: Inhibitory activity against 5-lipoxygenase (5-LO) in after oral administration of 5 mg/kg at 8 hr to canine. The class given is organism-based. On the set-up: dose 5 mg/kg. Particulars: Canis lupus familiaris; target entry is the homologue from another species; at 5 mg/kg.
Assay [9] has as its target T3, Cyclooxygenase (Homo sapiens). Put plainly: Inhibitory activity against cyclooxygenase (COX) in after oral administration of 5 mg/kg at 2 hr to canine. The class given is organism-based. On the set-up: dose 5 mg/kg. The settings on record: Canis lupus familiaris; target entry is the homologue from another species; at 5 mg/kg.
For assay [10] the target is unchanged. Description: Inhibitory activity against cyclooxygenase (COX) in after oral administration of 5 mg/kg at 8 hr to canine. Type of assay: organism-based. Further details: dose 5 mg/kg. The settings on record: Canis lupus familiaris; target entry is the homologue from another species; at 5 mg/kg.
For assay [11], the target named is T4, Polyunsaturated fatty acid 5-lipoxygenase (Homo sapiens). Description: Inhibitory activity against 5-lipoxygenase (5-LO) in after oral administration of 5 mg/kg at 24 hr r to canine. Type of assay: organism-based. Further details: dose 5 mg/kg. Particulars: Canis lupus familiaris; target entry is the homologue from another species; at 5 mg/kg.
Assay [12] shares this target. Description: Inhibitory activity against 5-lipoxygenase (5-LO) in after oral administration of 5 mg/kg at 8 hr. Type of assay: organism-based. On the set-up: dose 5 mg/kg. The settings on record: Canis lupus familiaris; at 5 mg/kg.
Assay [13] shares this target. Description: Inhibitory activity against 5-lipoxygenase (5-LO) in after oral administration of 5 mg/kg at 4 hr. The class given is organism-based. Further details: dose 5 mg/kg. The settings on record: Canis lupus familiaris; at 5 mg/kg.
For assay [14], the target named is T3, Cyclooxygenase (Homo sapiens). Description: Inhibitory activity against cyclooxygenase (COX) in after oral administration of 5 mg/kg at 8 hr. Further details: dose 5 mg/kg. The settings on record: Canis lupus familiaris; at 5 mg/kg. The class given is organism-based.
Assay [15] shares this target. Put plainly: Inhibitory activity against cyclooxygenase (COX) in after oral administration of 5 mg/kg at 4 hr. The class given is organism-based. On the set-up: dose 5 mg/kg. The settings on record: Canis lupus familiaris; at 5 mg/kg.
The target in assay [16] is T4, Polyunsaturated fatty acid 5-lipoxygenase (Homo sapiens). Description: Inhibitory activity against 5-lipoxygenase (5-LO) in after oral administration of 5 mg/kg at 2 hr. The class given is organism-based. On the set-up: dose 5 mg/kg. Particulars: Canis lupus familiaris; at 5 mg/kg.
The target is the same in assay [17]. Description: Inhibitory activity against 5-lipoxygenase (5-LO) in after oral administration of 5 mg/kg at 24 hr r. Type of assay: organism-based. On the set-up: dose 5 mg/kg. The settings on record: Canis lupus familiaris; at 5 mg/kg.
In assay [18] the target is T5, Cyclooxygenase (Rattus norvegicus) (UniProt P35355+Q63921). The assay is described as §1. The class given is cell-based. The settings on record: concentration not given here.
Assay [19] deals with T6, Prostaglandin G/H synthase 1 (Ovis aries) (UniProt P05979).
T6 sequence (whole entry): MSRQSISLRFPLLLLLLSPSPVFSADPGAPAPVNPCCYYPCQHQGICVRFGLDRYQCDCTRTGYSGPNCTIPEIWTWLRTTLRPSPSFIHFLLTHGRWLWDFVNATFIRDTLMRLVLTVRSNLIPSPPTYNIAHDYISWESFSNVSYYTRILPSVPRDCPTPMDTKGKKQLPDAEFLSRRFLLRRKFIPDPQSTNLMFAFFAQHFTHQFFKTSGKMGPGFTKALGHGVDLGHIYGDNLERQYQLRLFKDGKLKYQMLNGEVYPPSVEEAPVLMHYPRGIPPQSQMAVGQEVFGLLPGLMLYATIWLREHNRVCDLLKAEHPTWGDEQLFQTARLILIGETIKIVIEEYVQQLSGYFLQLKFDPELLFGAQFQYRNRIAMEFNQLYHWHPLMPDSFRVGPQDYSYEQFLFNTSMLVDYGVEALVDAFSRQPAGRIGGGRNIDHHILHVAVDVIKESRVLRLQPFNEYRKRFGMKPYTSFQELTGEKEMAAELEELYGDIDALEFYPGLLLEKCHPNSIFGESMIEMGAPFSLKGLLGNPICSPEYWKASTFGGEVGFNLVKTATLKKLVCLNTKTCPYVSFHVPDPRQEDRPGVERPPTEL
Put plainly: Inhibitory activity against Cyclooxygenase using sheep seminal vesicle (SSV) enzyme (COX-1) at 10 uM. Type of assay: tissue-based.

The target in assay [20] is T7, Polyunsaturated fatty acid 5-lipoxygenase (Rattus norvegicus) (UniProt P12527).
T7 sequence (whole entry): T2 sequence (P12527 whole entry)
Description: Inhibitory activity against 5-lipoxygenase (5-LO) using broken rat […] leukemia cells (RBL-1)at 10 uM. Type of assay: cell-based.

Assay [21] addresses T6, Prostaglandin G/H synthase 1 (Ovis aries). Description: Inhibitory activity against Cyclooxygenase using sheep seminal vesicle (SSV) enzyme (COX-1) Inhibition at 10 uM. Type of assay: tissue-based.
Assay [22] has as its target T7, Polyunsaturated fatty acid 5-lipoxygenase (Rattus norvegicus). Put plainly: Inhibitory activity against 5-lipoxygenase (5-LO) using broken rat […] leukemia cells (RBL-1) at 10 uM. Type of assay: cell-based.
Assay [23] concerns the target T5, Cyclooxygenase (Rattus norvegicus). Description: Inhibitory activity against Cyclooxygenase (COX) using broken rat […] leukemia cells (RBL-1) at 10 uM. Type of assay: cell-based.

On to `COc1ccc(-n2nc(CCC(=O)N(C)O)cc2-c2ccc(Cl)cc2)cc1` [TEPOXALIN], for which the IC50 (commonly the concentration needed to halve the response being measured) in assay [1] stood at 4.2 µM; in assay [2], 2.85 µM; in assay [3], 1.7 µM.
In the case of `COc1ccc(-n2nc(C#CCN(O)C(N)=O)cc2-c2ccc(C)cc2)cc1`, the inhibition (as a rule, the drop in the measured response relative to a control, in per cent) in assay [4] was 11%; in assay [5] it was 53%; in [6], 32%; in [7] it was 76%; in [8], 15%; in [9], 82%. For the same molecule, the values for the inhibition in [10] and in assay [11] were 46% and 10%, respectively. Further, the IC50 in assay [1] was 0.31 µM; in [2], 12.1 µM.
In the case of `COc1ccc(-n2nc(C#CC(C)N(O)C(C)=O)cc2-c2ccc(Cl)cc2)cc1` (stereo not drawn), the inhibition in assay [4] was found to be 68%; in assay [12], 31%; in [13], 20%; in [14], 62%; in [15], 75%; in assay [16] it was 34%. For the same molecule, the values for the inhibition in assay [9] and in [17] were 92% and 12%, respectively.
For `COc1ccc(-n2nc(C#CCN(O)C(C)=O)cc2-c2ccc(C)cc2)cc1`, the inhibition in assay [18] was found to be 100%; in assay [19] it was 74%; in assay [20] it was 100%. Besides, in assay [2], the IC50 amounted to 0.03 µM.
Take `CNC(=O)N(O)C(C)C#Cc1cc(-c2ccc(Cl)cc2)n(-c2ccc(OC)cc2)n1` (stereo not drawn): the figures for the inhibition in [21], in [22] and in [23] were 5%, 79% and 0%, respectively.
